≈ marks a conversion by molar mass, not a printed value. Like-named read-outs stand apart in the source and are kept apart here.
Columns and labels:
[1] = Cell viability: resazurin assay; type: cell-based, human; conditions: human, n = 1-5
Protocol: BEAS2B cells were seeded in 384-well plates (100 μL; 3000/well/; BD Falcon, Catalogue No 353962) in RPMI-LHC8 (RPMI-1640 and LHC8 media combined in equal proportions) one day before experimentation. For cell-free control wells, RPMI-LHC8 (100 μL) was added. Test compounds (0.5 μL of a DMSO solution) were added to give a final DMSO concentration of 0.5% using an Integra VIAFLO 96 (Integra, Zizers, Switzerland). BEAS2B cells were incubated with each test compound for 1 day (37° C./5% CO2 in RPMI-LHC8). After addition of resazurin stock solution (5 μL, 0.04%) the plates were incubated for a further 4 hr (37° C./5% CO2). The fluorescence of each well at 545 nm (excitation) and 590 nm (emission) was determined using a multi-scanner (Clariostar: BMG Labtech). The percentage loss of cell viability was calculated for each well relative to vehicle (0.5% DMSO) treatment. Where appropriate, a CC50 value was calculated from the concentration-response curve generated from the concentration-response curve for each test compound.

[2] = Fungus panel screening, CLSI broth microdilution; type: cell-based, Aspergillus pullulans; conditions: Aspergillus
Protocol: (§1) Fungus panel screening was conducted by Eurofins Panlabs Inc. The MIC and MIC50 values of the test articles were determined following the guidelines of the Clinical and Laboratory Standards Institute, broth microdilution methods for yeast (CLSI M27-A2), (CLSI, 2002) and for filamentous fungi (CLSI M38-A), (CLSI, 2008).

[3] = test system: Candida glabrata; test: Fungus panel screening, CLSI broth microdilution; type: cell-based; conditions: Nakaseomyces glabratus; for MIC: read-out: MIC100
Protocol: as §1

[4] = test system: Chaetomium globosum; test: Fungus panel screening, CLSI broth microdilution; type: cell-based; conditions: strain ATCC44699, visual inspection (CLSI); for MIC: read-out: MIC100
Protocol: as §1

[5] = test system: Rhizopus oryzae; test: Fungus panel screening, CLSI broth microdilution; type: cell-based; conditions: Rhizopus arrhizus, strain ATCC11145, visual inspection (CLSI); for MIC: read-out: MIC100
Protocol: as §1

[6] = test system: Aspergillus flavus; test: Fungus panel screening, CLSI broth microdilution; type: cell-based; conditions: strain ATCC204304, visual inspection (CLSI); for MIC: read-out: MIC100
Protocol: as §1

[7] = test system: Cryptococcus neoformans; test: Fungus panel screening, CLSI broth microdilution; type: cell-based; conditions: strain ATCC24067, visual inspection (CLSI); for MIC: read-out: MIC100
Protocol: as §1

[8] = test system: Aspergillus fumigatus (TR34-L98H strain); test: Aspergillus fumigatus invasion in human alveoli bilayers (transwells), GM in lower chamber; type: cell-based; conditions: Compound (I) 1 μg/mL upper chamber, Posaconazole 0.1 μg/mL lower chamber
Protocol: In vitro models of human alveoli, consisting of a bilayer of human alveolar epithelial cells and endothelial cells, were prepared as previously described (Hope et al., 2007). This system allows administration of a test compound to the upper (“air” space) and/or lower (“systemic” space) compartments. This flexibility has been exploited to explore the effects of combination treatments by dosing Compound (I) to the upper chamber and posaconazole or other anti-fungal agents to the lower chamber. Primary human pulmonary artery endothelial cells (HPAEC) were harvested and diluted to 10^6 cells/mL in EGM-2 media (Lonza, Basel, Switzerland). Transwells were inverted and the cell suspension (100 μL/well) was applied to the base of each transwell. The inverted transwells were incubated at RT within a flow hood for 2 hr after which they were turned upright. EGM-2 media was added to the lower (700 μL/well) and upper (100 μL/well) compartments and the transwells were incubated for 48 hr (37° C., 5% CO2). The EGM-2 media in the lower compartment was then replaced with fresh EGM-2 media. A549 cells were harvested and diluted to 5×10^5 cells/mL in 10% EBM, then added to the upper compartment (100 μL/well) of all transwells and the plates incubated for 72 hr (37° C., 5% CO2). Conidia of Aspergillus fumigatus (the itraconazole sensitive strain NCPF2010 and the itraconazole resistant strain TR34-L98H) were cultured separately in Sabouraud dextrose agar for 3 days. A stock conidia suspension of either strain was prepared from a Sabouraud dextrose agar culture by washing with PBS-tween (10 mL; PBS containing 0.05% Tween-20, 100 U/mL Penicillin and 100 U/mL Streptomycin). The conidia count was assessed using a Neubauer haemocytometer and adjusted to 10^6 conidia/mL with PBS. A working stock of conidia was prepared in EBM (conc of 10^5 conidia/mL) immediately prior to use.
Test and reference compounds (or neat DMSO as the vehicle) were added to the appropriate wells of 24-well plates (3 μL/well containing 600 μL of 2% FBS EBM) for lower compartment treatment and to 96-well plates (1 μL/well containing 200 μL of 2% FBS EBM) for the treatment of the upper compartment, to provide a final DMSO concentration of 0.5%. The media in the upper compartment was aspirated and that containing the appropriate test and reference compounds, or vehicle, were added (100 μL/well). Transwells were then transferred into the 24-well plate containing the test and reference compounds or DMSO vehicle. After incubation for 1 hr (35° C., 5% CO2) the conidia suspension (10 μL/well) was added to the upper compartment of each transwell. Plates were then incubated for 24 hr (35° C., 5% CO2). Supernatants from each compartment (5 μL/compartment) were collected and stored (−20° C.). Media was replaced daily after collection of the supernatants and all wells were treated with test and reference compounds or with DMSO, as described above, for 3 days. Samples continued to be collected until fungal growth was visible by eye in all transwells. The levels of GM in the supernatant in lower compartment were then measured by ELISA (BioRad, CA, USA) as an index of Aspergillus fumigatus invasion.

[9] = strain ATCC36583, visual inspection (CLSI)
[10] = strain R363, visual inspection (CLSI)
[11] = strain ATCC9348, visual inspection (CLSI), read-out: MIC50
[12] = strain ATCC9348, visual inspection (CLSI), read-out: MIC100

| Structure (SMILES) | MIC50 [3, 9] [µg/mL] | MIC [3, 9] [µg/mL] | MIC50 [3, 10] [µg/mL] | MIC [3, 10] [µg/mL] | MIC50 [4] [µg/mL] | MIC [4] [µg/mL] | MIC50 [5] [µg/mL] | MIC [5] [µg/mL] | CC50 at 1 day ([1]; BEAS2B cells) [µM] | MIC50 [2, 11] [µg/mL] | MIC [2, 12] [µg/mL] | MIC50 [6] [µg/mL] | MIC [6] [µg/mL] | MIC50 [7] [µg/mL] | MIC [7] [µg/mL] | DFB50 (days taken to reach a fungal burden of 50% of control) [8] [days] | GM Levels in the Lower Chamber, OD value ([8]; Treatment Day 0) [OD] | GM Levels in the Lower Chamber, OD value ([8]; Treatment Day 1) [OD] | GM Levels in the Lower Chamber, OD value ([8]; Treatment Day 2) [OD] | GM Levels in the Lower Chamber, OD value ([8]; Treatment Day 3) [OD] | other results |
| --- | --- | --- | --- | --- | --- | --- | --- | --- | --- | --- | --- | --- | --- | --- | --- | --- | --- | --- | --- | --- | --- |
| C[C@@H](c1ncncc1F)[C@](O)(Cn1cncn1)c1ccc(F)cc1F [Voriconazole] | 0.25 (≈ 0.716 µM) | > 8 | > 8 | > 8 | 0.5 (≈ 1.43 µM) | 1 (≈ 2.86 µM) | 8 (≈ 22.9 µM) | > 8 | – | – | – | – | – | – | – | – | – | – | – | – | CC50 at 1 day ([1]; read-out: BEAS2B Cell Viability CC50): > 28.6 µM; MIC50 ([2]; ATCC9348): > 8 µg/mL; MIC ([2]; ATCC9348, read-out: MIC100): > 8 µg/mL |
| CC[C@@H]([C@H](C)O)n1ncn(-c2ccc(N3CCN(c4ccc(OC[C@@H]5CO[C@@](Cn6cncn6)(c6ccc(F)cc6F)C5)cc4)CC3)cc2)c1=O [Posaconazole] | 0.5 (≈ 0.713 µM) | > 8 | 0.5 (≈ 0.713 µM) | > 8 | 0.13 (≈ 0.186 µM) | 0.25 (≈ 0.357 µM) | 0.13 (≈ 0.186 µM) | > 8 | > 14.3 | 0.25 (≈ 0.357 µM) | 1 (≈ 1.43 µM) | 0.063 (≈ 0.0899 µM) | 0.13 (≈ 0.186 µM) | 0.016 (≈ 0.0228 µM) | 0.25 (≈ 0.357 µM) | 1.64 | 0 | 0.039 | 1.02 | 0.97 | GM Levels in the Lower Chamber, % inhibition vs. control ([8]; Treatment Day 1): 88%; GM Levels in the Lower Chamber, % inhibition vs. control ([8]; Treatment Day 2): −2.7%; GM Levels in the Lower Chamber, % inhibition vs. control ([8]; Treatment Day 3): 1.7%; GM Levels in the Lower Chamber, % inhibition vs. control ([8]; Treatment Day 4): −1.4%; GM Levels in the Lower Chamber, OD value ([8]; Treatment Day 4): 1.02 OD |
| Cc1cc(N2CCN(c3ccc(C(=O)Nc4ccc(F)cc4)cc3)CC2)ccc1OC[C@@H]1CO[C@@](Cn2cncn2)(c2ccc(F)cc2F)C1 [Compound (I), 4-(4-(4-(((3R,5R)-5-((1H-1,2,4-triazol-1-yl)methyl)-5-(2,4-difluorophenyl)tetrahydrofuran-3-yl)methoxy)-3-methylphenyl)piperazin-1-yl)-N-(4-fluorophenyl)benzamide] | 0.5 (≈ 0.732 µM) | > 8 | 0.5 (≈ 0.732 µM) | > 8 | 0.063 (≈ 0.0923 µM) | > 8 | 0.063 (≈ 0.0923 µM) | 2 (≈ 2.93 µM) | > 12.2 | > 8 | > 8 | 1 (≈ 1.46 µM) | > 8 | 0.008 (≈ 0.0117 µM) | 1 (≈ 1.46 µM) | 1.10 | 0 | 0.35 | 0.99 | 0.99 | GM Levels in the Lower Chamber, OD value ([8]; Treatment Day 4): 1.01 OD |
